Measured values reported in the supplement of paper PMC4862054.

system: MDA-MB-468; assay: normalised response (% of control), CellTiter-Glo; higher = more viable cells (100 = DMSO, 0 = benzethonium chloride kill control); conditions: incubation time: 72 h
Procedure, shortened: (§1)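 Each value is the plate-normalised signal at one concentration of the series. Breast cancer cell lines (20 µl suspension) were incubated 72 h in 384-well plates with compound at 5 concentrations in 10-fold steps over a compound-specific 10,000-fold range. CellTox Green and then CellTiter-Glo were read, and each plate was scaled to 0.1 % DMSO (100) and a positive kill control (0).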

Compound	normalised response [%]
O=C(O)CCCCC(CCSCc1ccccc1)SCc1ccccc1 (stereo not drawn) [CPI-613] (1 nM)	103
CC[C@H](C)C(=O)O[C@H]1C[C@H](O)C=C2C=C[C@H](C)[C@H](CC[C@@H](O)C[C@@H](O)CC(=O)O)[C@H]21 [Pravastatin] (1 nM)	99.9
C=CCc1cccc(/C=N/NC(=O)CN2CCN(Cc3ccccc3)CC2)c1O [PAC-1] (1 nM)	109
C[C@H]1C[C@@H]2[C@H]([C@@H](O)C[C@@]3(C)[C@H]2CC[C@]3(O)C(=O)CO)[C@@]2(C)C=CC(=O)C=C12 [Methylprednisolone] (10 nM)	99.8
CC[C@@H]1C(=O)N(C)c2cnc(Nc3ccc(C(=O)NC4CCN(C)CC4)cc3OC)nc2N1C1CCCC1 [BI 2536] (1 nM)	92.6
COc1cc2c(NC3CCN(C(C)C)CC3)nc(C3CCCCC3)nc2cc1OCCCN1CCCC1 [UNC0638] (10 nM)	88.2
C=CCc1cccc(/C=N/NC(=O)CN2CCN(Cc3ccccc3)CC2)c1O [PAC-1] (10 nM)	111
O=C(O)CCCCC(CCSCc1ccccc1)SCc1ccccc1 (stereo not drawn) [CPI-613] (10 nM)	101

system: CAL-51; assay: as above; conditions: incubation time: 72 h
Procedure, shortened: as §1

Compound	normalised response [%]
COc1cc2c(Oc3ccc4[nH]c(C)cc4c3F)ncnc2cc1OCCCN1CCCC1 [Cediranib] (1 nM)	131
COc1cc2c(Oc3ccc4[nH]c(C)cc4c3F)ncnc2cc1OCCCN1CCCC1 [Cediranib] (0.1 nM)	113
O=C(O)CCCCC(CCSCc1ccccc1)SCc1ccccc1 (stereo not drawn) [CPI-613] (1 nM)	78.6
CC[C@H](C)C(=O)O[C@H]1C[C@H](O)C=C2C=C[C@H](C)[C@H](CC[C@@H](O)C[C@@H](O)CC(=O)O)[C@H]21 [Pravastatin] (1 nM)	104
C=CCc1cccc(/C=N/NC(=O)CN2CCN(Cc3ccccc3)CC2)c1O [PAC-1] (1 nM)	129
C[C@H]1C[C@@H]2[C@H]([C@@H](O)C[C@@]3(C)[C@H]2CC[C@]3(O)C(=O)CO)[C@@]2(C)C=CC(=O)C=C12 [Methylprednisolone] (10 nM)	116
CC[C@@H]1C(=O)N(C)c2cnc(Nc3ccc(C(=O)NC4CCN(C)CC4)cc3OC)nc2N1C1CCCC1 [BI 2536] (1 nM)	133
COc1cc2c(NC3CCN(C(C)C)CC3)nc(C3CCCCC3)nc2cc1OCCCN1CCCC1 [UNC0638] (10 nM)	116
C=CCc1cccc(/C=N/NC(=O)CN2CCN(Cc3ccccc3)CC2)c1O [PAC-1] (10 nM)	108
O=C(O)CCCCC(CCSCc1ccccc1)SCc1ccccc1 (stereo not drawn) [CPI-613] (10 nM)	95.5

system: BT-549; assay: as above; conditions: incubation time: 72 h
Procedure, shortened: as §1

Compound	normalised response [%]
COc1cc2c(Oc3ccc4[nH]c(C)cc4c3F)ncnc2cc1OCCCN1CCCC1 [Cediranib] (1 nM)	101
COc1cc2c(Oc3ccc4[nH]c(C)cc4c3F)ncnc2cc1OCCCN1CCCC1 [Cediranib] (0.1 nM)	101
O=C(O)CCCCC(CCSCc1ccccc1)SCc1ccccc1 (stereo not drawn) [CPI-613] (1 nM)	102
CC[C@H](C)C(=O)O[C@H]1C[C@H](O)C=C2C=C[C@H](C)[C@H](CC[C@@H](O)C[C@@H](O)CC(=O)O)[C@H]21 [Pravastatin] (1 nM)	102
C=CCc1cccc(/C=N/NC(=O)CN2CCN(Cc3ccccc3)CC2)c1O [PAC-1] (1 nM)	105
C[C@H]1C[C@@H]2[C@H]([C@@H](O)C[C@@]3(C)[C@H]2CC[C@]3(O)C(=O)CO)[C@@]2(C)C=CC(=O)C=C12 [Methylprednisolone] (10 nM)	101
CC[C@@H]1C(=O)N(C)c2cnc(Nc3ccc(C(=O)NC4CCN(C)CC4)cc3OC)nc2N1C1CCCC1 [BI 2536] (1 nM)	98.2
COc1cc2c(NC3CCN(C(C)C)CC3)nc(C3CCCCC3)nc2cc1OCCCN1CCCC1 [UNC0638] (10 nM)	98.4
C=CCc1cccc(/C=N/NC(=O)CN2CCN(Cc3ccccc3)CC2)c1O [PAC-1] (10 nM)	97.7
O=C(O)CCCCC(CCSCc1ccccc1)SCc1ccccc1 (stereo not drawn) [CPI-613] (10 nM)	89.8

system: HCC1937; assay: as above; conditions: incubation time: 72 h
Procedure, shortened: as §1

Compound	normalised response [%]
COc1cc2c(Oc3ccc4[nH]c(C)cc4c3F)ncnc2cc1OCCCN1CCCC1 [Cediranib] (1 nM)	94.7
COc1cc2c(Oc3ccc4[nH]c(C)cc4c3F)ncnc2cc1OCCCN1CCCC1 [Cediranib] (0.1 nM)	104
O=C(O)CCCCC(CCSCc1ccccc1)SCc1ccccc1 (stereo not drawn) [CPI-613] (1 nM)	104
CC[C@H](C)C(=O)O[C@H]1C[C@H](O)C=C2C=C[C@H](C)[C@H](CC[C@@H](O)C[C@@H](O)CC(=O)O)[C@H]21 [Pravastatin] (1 nM)	97.6
C=CCc1cccc(/C=N/NC(=O)CN2CCN(Cc3ccccc3)CC2)c1O [PAC-1] (1 nM)	106
C[C@H]1C[C@@H]2[C@H]([C@@H](O)C[C@@]3(C)[C@H]2CC[C@]3(O)C(=O)CO)[C@@]2(C)C=CC(=O)C=C12 [Methylprednisolone] (10 nM)	101
CC[C@@H]1C(=O)N(C)c2cnc(Nc3ccc(C(=O)NC4CCN(C)CC4)cc3OC)nc2N1C1CCCC1 [BI 2536] (1 nM)	94.6
COc1cc2c(NC3CCN(C(C)C)CC3)nc(C3CCCCC3)nc2cc1OCCCN1CCCC1 [UNC0638] (10 nM)	96.6
C=CCc1cccc(/C=N/NC(=O)CN2CCN(Cc3ccccc3)CC2)c1O [PAC-1] (10 nM)	103
O=C(O)CCCCC(CCSCc1ccccc1)SCc1ccccc1 (stereo not drawn) [CPI-613] (10 nM)	99

system: HCC1599; assay: as above; conditions: incubation time: 72 h
Procedure, shortened: as §1

Compound	normalised response [%]
COc1cc2c(Oc3ccc4[nH]c(C)cc4c3F)ncnc2cc1OCCCN1CCCC1 [Cediranib] (1 nM)	93.9
COc1cc2c(Oc3ccc4[nH]c(C)cc4c3F)ncnc2cc1OCCCN1CCCC1 [Cediranib] (0.1 nM)	93.4
O=C(O)CCCCC(CCSCc1ccccc1)SCc1ccccc1 (stereo not drawn) [CPI-613] (1 nM)	97.6
CC[C@H](C)C(=O)O[C@H]1C[C@H](O)C=C2C=C[C@H](C)[C@H](CC[C@@H](O)C[C@@H](O)CC(=O)O)[C@H]21 [Pravastatin] (1 nM)	117
C=CCc1cccc(/C=N/NC(=O)CN2CCN(Cc3ccccc3)CC2)c1O [PAC-1] (1 nM)	101
C[C@H]1C[C@@H]2[C@H]([C@@H](O)C[C@@]3(C)[C@H]2CC[C@]3(O)C(=O)CO)[C@@]2(C)C=CC(=O)C=C12 [Methylprednisolone] (10 nM)	93.7
CC[C@@H]1C(=O)N(C)c2cnc(Nc3ccc(C(=O)NC4CCN(C)CC4)cc3OC)nc2N1C1CCCC1 [BI 2536] (1 nM)	108
COc1cc2c(NC3CCN(C(C)C)CC3)nc(C3CCCCC3)nc2cc1OCCCN1CCCC1 [UNC0638] (10 nM)	82.1
C=CCc1cccc(/C=N/NC(=O)CN2CCN(Cc3ccccc3)CC2)c1O [PAC-1] (10 nM)	112
O=C(O)CCCCC(CCSCc1ccccc1)SCc1ccccc1 (stereo not drawn) [CPI-613] (10 nM)	118
